Experimental data reported in patent publication US11173145B2, “Compounds useful as inhibitors of indoleamine 2,3-dioxygenase and/or tryptophan dioxygenase” (Board of Regents, The University of Texas System, priority 2017, dated 2021).

Legend:
mouse IDO1 = molecular target: T1, mouse IDO1 (Mus musculus, UniProt P28776); test: Mouse IDO1 cell-based assay (PANC02 cells, mouse IFNgamma-induced, N-formylkynurenine/L-tryptophan by RFMS); settings: 30 ng/mL mouse IFNgamma, 48 hours
T1 construct: The murine PANC02 pancreatic ductal adenocarcinoma cell line was routinely maintained in DMEM media; endogenous in cells; host or cells: PANC02 murine pancreatic ductal adenocarcinoma cells, induced with mouse IFNgamma
T1 sequence (P28776 whole entry): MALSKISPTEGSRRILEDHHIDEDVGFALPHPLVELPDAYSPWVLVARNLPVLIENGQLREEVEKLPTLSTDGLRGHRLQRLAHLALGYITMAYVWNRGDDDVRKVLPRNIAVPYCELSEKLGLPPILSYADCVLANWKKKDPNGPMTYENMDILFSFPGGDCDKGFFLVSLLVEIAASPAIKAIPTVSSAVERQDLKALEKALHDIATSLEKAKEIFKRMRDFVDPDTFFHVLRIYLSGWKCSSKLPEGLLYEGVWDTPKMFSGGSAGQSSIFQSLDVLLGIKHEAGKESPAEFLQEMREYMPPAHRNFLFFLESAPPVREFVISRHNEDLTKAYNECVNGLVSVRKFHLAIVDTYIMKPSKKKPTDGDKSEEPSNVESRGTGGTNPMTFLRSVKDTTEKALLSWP
Description: The murine PANC02 pancreatic ductal adenocarcinoma cell line was routinely maintained in DMEM media containing 10% FBS. Cells (3,000/well) were seeded onto a 384 well plate in 50 μl of media and incubated at 37° C., 5% CO2 overnight. Cell media was aspirated, fresh media containing 30 ng/mL mouse IFNgamma (Gibco Life Technologies, cat #PMC4031) was added, and cells were incubated in absence or presence of various concentrations of compounds (final 0.5% DMSO) for 48 hours at 37° C., 5% CO2. Aliquots of the cell conditioned media was removed from the cell plate, and mixed with equal volume of 200 mM ZnSO4 to precipitate media containing protein. Two volumes of acetonitrile were added by mixing, and samples were then centrifuged at 2250G for 20 minutes at 4° C. Aliquots of the supernatant were diluted 1:10 in 0.1% formic acid containing 3 μM of deuterated Tryptophan as an internal standard.
Samples were analyzed via RFMS to quantify N-Formyl Kynurenine (AUC) and L-tryptophan (AUC). A C18 cartridge was used with mobile phases of 0.1% Formic Acid and 80% ACN/0.1% Formic Acid under isocratic conditions. Dose-response curves were analyzed using IC50 regression curve fitting (GeneData Screener). Curves were plotted as percent of control and normalized by high controls without inhibitor (100%), and low controls (0%) containing 1 μM of epacadostat. Cell viability was also assessed using the Cell Titer Glo Kit (Promega) following manufacture recommendation.

IDO1 = molecular target: T2, IDO1 (Homo sapiens, UniProt P14902); test: IDO1 cell-based assay (HeLa cells, IFNgamma-induced, N-formylkynurenine/L-tryptophan by RFMS); settings: 10 ng/mL IFNgamma, 24 hours
T2 construct: endogenous in cells; host or cells: HeLa cells (ATCC), IFNgamma-induced
T2 sequence (P14902 whole entry): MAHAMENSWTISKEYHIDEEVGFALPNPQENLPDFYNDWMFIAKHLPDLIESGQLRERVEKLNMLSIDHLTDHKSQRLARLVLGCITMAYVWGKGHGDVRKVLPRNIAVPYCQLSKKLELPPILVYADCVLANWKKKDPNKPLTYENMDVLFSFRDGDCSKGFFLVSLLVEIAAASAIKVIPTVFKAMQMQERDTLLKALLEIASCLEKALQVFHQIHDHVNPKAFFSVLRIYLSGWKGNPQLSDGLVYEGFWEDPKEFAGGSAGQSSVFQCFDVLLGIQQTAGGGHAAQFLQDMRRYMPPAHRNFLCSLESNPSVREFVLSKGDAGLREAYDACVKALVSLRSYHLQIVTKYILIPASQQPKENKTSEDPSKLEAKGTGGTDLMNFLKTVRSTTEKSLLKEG
In short: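 N-formylkynurenine and tryptophan peak areas in media measured by RFMS (C18, isocratic, d-Trp standard), giving IC50 values by regression. Source: HeLa cells incubated 24 h with IFNgamma (10 ng/mL) plus test compound at 0.5% DMSO; parallel CellTiter-Glo viability read.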

| IC50 (mouse IDO1) [nM] | IC50 (IDO1) [nM] | Structure (SMILES) |
| --- | --- | --- |
| < 500 | < 200 | CCC(NC(=O)c1ccc(Cl)cc1)[C@H]1[C@@H]2C[C@@H](n3cc(N(C)C)nn3)C[C@@H]21 (stereo partly drawn) [Compound 238, 4-chloro-N-(1-((1R,3s,5S,6r)-3-(4-(dimethylamino)-1H-1,2,3-triazol-1-yl)bicyclo[3.1.0]hexan-6-yl)propyl)benzamide] |
| < 500 | < 200 | CCc1cn([C@@H]2C[C@@H]3[C@H](C2)[C@H]3C(CC)NC(=O)c2ccc(Cl)cc2)nn1 (stereo partly drawn) [Compound 167, 4-chloro-N-(1-((1R,3s,5S,6r)-3-(4-ethyl-1H-1,2,3-triazol-1-yl)bicyclo[3.1.0]hexan-6-yl)propyl)benzamide] |
| < 500 | < 200 | CCC(NC(=O)c1ccc(Cl)cc1)[C@H]1[C@@H]2C[C@@H](n3c(=O)n(C)c4ccccc43)C[C@@H]21 (stereo partly drawn) [Compound 181, 4-chloro-N-(1-((1R,3s,5S,6r)-3-(3-methyl-2-oxo-2,3-dihydro-1H-benzo[d]imidazol-1-yl)bicyclo[3.1.0]hexan-6-yl)propyl)benzamide] |
| 500 to 2000 | 200 to 2000 | CCC(NC(=O)c1ccc(Cl)cc1)[C@H]1[C@@H]2C[C@H](NC(=O)c3nccc(C(F)(F)F)c3Cl)C[C@@H]21 (stereo partly drawn) [Compound 222, 3-chloro-N-((1R,3r,5S,6r)-6-(1-(4-chlorobenzamido)propyl)bicyclo[3.1.0]hexan-3-yl)-4-(trifluoromethyl)picolinamide] |
| > 5000 | > 5000 | CCC(NC(=O)c1ccc(Cl)cc1)[C@H]1[C@@H]2C[C@@H](n3cc(C4CN(C(C)=O)C4)nn3)C[C@@H]21 (stereo partly drawn) [Compound 257, N-(1-((1R,3s,5S,6r)-3-(4-(1-acetylazetidin-3-yl)-1H-1,2,3-triazol-1-yl)bicyclo[3.1.0]hexan-6-yl)propyl)-4-chlorobenzamide] |
| 500 to 2000 | 200 to 2000 | CCC(NC(=O)c1ccc(Cl)cc1)[C@H]1[C@@H]2C[C@@H](n3c(=O)[nH]c4ccccc43)C[C@@H]21 (stereo partly drawn) [Compound 180, 4-chloro-N-(1-((1R,3s,5S,6r)-3-(2-oxo-2,3-dihydro-1H-benzo[d]imidazol-1-yl)bicyclo[3.1.0]hexan-6-yl)propyl)benzamide] |
| > 5000 | 2000 to 5000 | CCC(NC(=O)c1ccc(Cl)cc1)[C@H]1[C@@H]2C[C@@H](NC(C(=O)NC)c3ccccc3)C[C@@H]21 (stereo partly drawn) [Compound 224, 4-chloro-N-(1-((1R,3s,5S,6r)-3-((2-(methylamino)-2-oxo-1-phenylethyl)amino)bicyclo[3.1.0]hexan-6-yl)propyl)benzamide] |
| 500 to 2000 | 200 to 2000 | CCC(NC(=O)c1ccc(Cl)cc1)[C@H]1[C@@H]2C[C@@H](C(C(=O)OC)c3ccccc3)C[C@@H]21 (mixture of isomers) [Compound 202, methyl (S)-2-((1R,3S,5S, 6S)-6-((R)-1-(4-chlorobenzamido)propyl)bicyclo[3.1.0]hexan-3-yl)-2-phenylacetate and methyl (R)-2-((R, 3S, 5S, 6S)-6-((S)-1-(4-chlorobenzamido)propyl)bicyclo[3.1.0]hexan-3-yl)-2-phenylacetate] |
| < 500 | < 200 | CCC(NC(=O)c1ccc(Cl)cc1)[C@H]1[C@@H]2C[C@@H](n3cc4c(F)cccc4n3)C[C@@H]21 (stereo partly drawn) [Compound 209, 4-chloro-N-(1-((1R,3s,5S,6r)-3-(4-fluoro-2H-indazol-2-yl)bicyclo[3.1.0]hexan-6-yl)propyl)benzamide] |
| 500 to 2000 | < 200 | CCC(NC(=O)c1ccc(Cl)cc1)[C@H]1[C@@H]2C[C@@H](n3ncc4cccc(F)c43)C[C@@H]21 (stereo partly drawn) [Compound 206, 4-chloro-N-(1-((1R,3s,5S,6r)-3-(7-fluoro-1H-indazol-1-yl)bicyclo[3.1.0]hexan-6-yl)propyl)benzamide] |
| < 500 | < 200 | CCC(NC(=O)c1ccc(Cl)cc1)[C@H]1[C@@H]2C[C@@H](n3nnc4ccc(Br)cc43)C[C@@H]21 (stereo partly drawn) [Compound 178, N-(1-((1R,3s,5S,6r)-3-(6-bromo-1H-benzo[d][1,2,3]triazol-1-yl)bicyclo[3.1.0]hexan-6-yl)propyl)-4-chlorobenzamide] |
